Experimental data taken from US11267836B2, “Methods for producing ferric maltol compositions from ligand modified and ligand coated ferric hydroxides” (Shield TX (UK) Limited, priority 2016, dated 2022).

Tests used:
[1] = Dissolution in ethanol (check for ferric hydroxide in ferric trimaltol); details: for dissolution of ferric trimaltol powder in ethanol: powders produced as per Examples 1 and 2 dissolved in ethanol, complete dissolution confirms absence of iron hydroxides
Procedure: As such ferric trimaltol powders produced as per Examples 1 and 2 were dissolved in ethanol.

[2] = in vivo; cited from earlier work
IBD patients = details: in vivo; cited from earlier work

Row | SMILES | dissolution of ferric trimaltol powder in ethanol [1] | solubility in ethanol [1] | absorption [2] | tolerability (IBD patients)
1 | Cc1occc(=O)c1[O-].Cc1occc(=O)c1[O-].Cc1occc(=O)c1[O-].[Fe+3] [Example 1] | did not | – | – | –
2 | Cc1occc(=O)c1[O-].Cc1occc(=O)c1[O-].Cc1occc(=O)c1[O-].[Fe+3] [Example 2] | dissolved completely | – | – | –
3 | Cc1occc(=O)c1[O-].Cc1occc(=O)c1[O-].Cc1occc(=O)c1[O-].[Fe+3] [Ferric trimaltol, ferric trimaltol] | – | soluble in ethanol | well absorbed | well tolerated
